In ChEMBL document CHEMBL1158753, “Ammodendrine and N-methylammodendrine enantiomers: isolation, optical rotation, and toxicity” (J Nat Prod, 2005) one finds LD50 data, which are given here for four compounds.

The structures appear in SMILES notation.

A short description of this data set: […] against iv dosed Swiss-Webster mouse. The format is organism-based. The note with it: in vivo.

For `CC(=O)N1C=C([C@@H]2CCCCN2C)CCC1`, the LD50 was determined as 63.4 mg/kg.
For `CC(=O)N1C=C([C@H]2CCCCN2C)CCC1`, the LD50 was 56.3 mg/kg.
Regarding `CC(=O)N1C=C([C@@H]2CCCCN2)CCC1`, the LD50 amounted to 115 mg/kg. This LD50 is about 2-fold higher than that of the compound before.
Under `CC(=O)N1C=C([C@H]2CCCCN2)CCC1` stands 94.1 mg/kg.

In general, LD50 refers to the dose expected to kill half of the subjects tested. A lower LD50 goes with a more toxic substance.
